Blank lines part the entries; values can stand above or below the compound they belong to.
Experiments:
[1] = Biodistribution of [111In]In-radiocomplexes in healthy mice; assay type: in vivo
Protocol: We performed a biodistribution study of the four [^111In]In-radiocomplexes in healthy mice to determine the clearance rate from systemic blood circulation and the tissue/organ distribution over time. […] The urinary tract was identified as the main excretory pathway since the highest % I.D./g values were found in the kidneys for all the radiocomplexes, associated to rapid radioactivity excretion both at 15 min and 1 h p.i. […] page 9: from whole animal body. Blood samples were taken by cardiac puncture at sacrifice. […] The animals were kept under […] volume of approximate 390 ± 190 mm3. […] […] carried out on groups of 8 mice (n = 4). […] The animals were weighed and dissected.

in vivo [2] = details: male, NodCB17 SCID, mouse, iv, 0.061 nmol, total radioactivity
From the text: Searching for a preliminary proof of concept of the intended pre-targeting approach, we synthesized a clickable TCO-containing bombesin antagonist (TCO-PEG4-AR) based on the potent GRPr antagonist AR reported in the literature, as described in the Supplementary Material ([29]). We hypothesized that the antagonist, when bound to the surface of human PC3 cells, would be available for the in vivo click reaction with the Tz-containing radiocomplex. As a control, the biodistribution data of the preformed [^90Y]Y-DOTA-Tz-TCO-PEG4-AR in PC3-xenografts bearing mice at 15 min and 1 h p.i. are available in Supplementary Table 5. For the pre-targeting approach, the tumor-bearing mice were injected with 1 nmol of the clickable bombesin antagonist and, after 4 h, we injected the radiocomplex [^90Y]Y-DOTA-Tz. […] In parallel, pre-targeting experiments based on ex-vivo biodistribution studies were performed in the same way for the congener [^111In]In-DOTA-Tz, and using the same animal model. […]
(§1) from whole animal body. Blood samples were taken by cardiac puncture at sacrifice. Tissue samples of the main organs were then dissected, weighted and counted in a gamma counter (Berthold).
(§2) Biodistribution results were expressed as percentage of the injected dose per gram tissue (%I.D./g) in the form of an average with standard deviation (%ID/g; mean ± standard deviation (SD).
(§3) Biodistribution in PC3 bearing mice
(§4) Male, 5-6 weeks old NodCB17 SCID mice were obtained from Janvier Lab., France. Mice were housed under pathogen-free conditions with food and water ad libitum, and a 12-12 hour light-dark cycle.
(§5) Veterinarian staff and investigators observed the mice daily to ensure animal welfare and determine if human endpoints (e.g., hunched and ruffled appearance, apathy, ulceration, severe weight loss, tumour burden) were reached. The mice were subcutaneously injected in the shoulder with 200 µL bolus containing a suspension of […] freshly harvested human prostatic cell line PC3 in Matrigel™ Basement Membrane Matrix (BD Sciences) under anaesthesia with 2% isoflurane. The animals were kept under pathogen-free condition and experiments were performed 2–3 weeks later when a tumour reached a volume of approximate 390 ± 190 mm3. Animals were allocated into treatment groups using a complete […]
(§6) The examination of physiological distribution for [90Y]Y-DOTA-Tz were carried out on 4 mice (n = 4). For the control bolus, 0.061 nmol, 0.1 mL, 7.5 µCi of [90Y]Y-DOTA-Tz was intravenously injected by tail vein. The examination of physiological distribution for [90Y]Y-DOTA-Tz-TCO-PEG4-AR were carried out on groups of 8 mice (n = 4). For the control bolus, 0.061 nmo l, 0.1 mL, 7.5 µCi of 90Y-DOTA-Tz TCO-PEG4-AR was intravenously injected by tail vein. At appropriate time points (15 min, 1h or 2h after-injection), the animals were euthanized, tissues of interest were dissected, weighted, and […]

in vivo [3] = details: male, NodCB17 SCID, mouse, iv, total radioactivity
From the text: as §1, §2, §3, §4, §5
as §6, with “and their radioactivity was measured using NaI gamma counter supplied with adapter for the whole-body” for “and”
Biodistribution of 111In-DOTA-Tz-TCO-PEG4-AR was performed by intravenous injection of 100 µL (50 – 75 µCi) of the preparation into mice (n =4) via the tail vein. Immediately after injection, radioactive dosage administered into each animal was measured in a dose calibrator (Capintec CRC25R). For the in vivo click chemistry studies in the same PC3 xenografts (n=3), a bolus of 1 nmol of TCO-PEG4-AR, dissolved in 0.1 mL of saline, was injected in the tail vein, and after 4h the [111In]In-DOTA-Tz (0.1mL, 50 – 75 µCi µCi). After 1 h of administration of the radioactive preparations, the mice groups were sacrificed by cervical dislocation and the radioactivity in the sacrificed animal was measured. The difference between the radioactivity in the injected and the sacrificed animal was assumed to be due to total excretion. The animals were weighed and dissected. Then, tissues of interest were removed, weighed and counted in a γ-counter (Berthold, LB211, Germany).
For all the performed biodistribution studies, selected organs and tissues were assayed for their radioactivity and weighted. The physiological distribution was then calculated and expressed in terms of the percentage of the administrated radioactivity found in each of the selected organs or tissues per gram (%ID/g) in the form of an average with standard deviation (%ID/g; mean ± standard deviation
(1 picture or pasted object on this page, not shown here)

Biodistribution: Blood ([1]; 15 min p.i.): 3.7 ± 0.6 % I.D./g
Biodistribution: Bone ([1]; 15 min p.i.): 0.8 ± 0.2 % I.D./g
Biodistribution: Heart ([1]; 15 min p.i.): 1.2 ± 0.6 % I.D./g
Biodistribution: Intestine ([1]; 15 min p.i.): 0.31 ± 0.05 % I.D./g
Biodistribution: Kidney ([1]; 15 min p.i.): 4.8 ± 0.7 % I.D./g
Biodistribution: Liver ([1]; 15 min p.i.): 0.8 ± 0.1 % I.D./g
Biodistribution: Lung ([1]; 15 min p.i.): 1.4 ± 0.2 % I.D./g
Biodistribution: Muscle ([1]; 15 min p.i.): 0.86 ± 0.07 % I.D./g
Biodistribution: Pancreas ([1]; 15 min p.i.): 0.53 ± 0.05 % I.D./g
Biodistribution: Spleen ([1]; 15 min p.i.): 0.6 ± 0.2 % I.D./g
Biodistribution: Stomach ([1]; 15 min p.i.): 1.0 ± 0.5 % I.D./g
Excretion ([1]; 15 min p.i.): 62.7 ± 2.6 % I.D.
Biodistribution: Blood ([1]; 1 h p.i.): 0.7 ± 0.4 % I.D./g
Biodistribution: Bone ([1]; 1 h p.i.): 0.17 ± 0.09 % I.D./g
Biodistribution: Heart ([1]; 1 h p.i.): 0.13 ± 0.08 % I.D./g
Biodistribution: Intestine ([1]; 1 h p.i.): 0.4 ± 0.2 % I.D./g
Biodistribution: Kidney ([1]; 1 h p.i.): 2.2 ± 0.6 % I.D./g
Biodistribution: Liver ([1]; 1 h p.i.): 0.3 ± 0.2 % I.D./g
Biodistribution: Lung ([1]; 1 h p.i.): 0.3 ± 0.2 % I.D./g
Biodistribution: Muscle ([1]; 1 h p.i.): 0.2 ± 0.1 % I.D./g
Biodistribution: Pancreas ([1]; 1 h p.i.): 0.12 ± 0.07 % I.D./g
Biodistribution: Spleen ([1]; 1 h p.i.): 0.11 ± 0.05 % I.D./g
Biodistribution: Stomach ([1]; 1 h p.i.): 1.1 ± 0.8 % I.D./g
Excretion ([1]; 1 h p.i.): 87.1 ± 6.9 % I.D.
Compound: O=C([O-])CN1CCN(CC(=O)[O-])CCN(C(CCC(=O)NCCOCCOCCOCCOCCOCCOCCOCCOCCOCCOCCOCCNC(=O)CCCC(=O)NCc2ccc(-c3nncnn3)cc2)C(=O)[O-])CCN(CC(=O)[O-])CC1.[111In+3] (stereo not shown) [[111In]In-DOTAGA-PEG-Tz]

Compound: CC(C)C[C@H](NC(=O)C[C@H](O)[C@H](CC(C)C)NC(=O)[C@H](Cc1c[nH]cn1)NC(=O)CNC(=O)[C@@H](NC(=O)[C@H](C)NC(=O)[C@H](Cc1c[nH]c2ccccc12)NC(=O)[C@H](CCC(N)=O)NC(=O)[C@@H](Cc1ccccc1)NC(=O)CCOCCOCCOCCOCCNC(=O)OC1CCCC2=CNN=C(c3ccc(CNC(=O)CN4CCN(CC(=O)O)CCN(CC(=O)O)CCN(CC(=O)O)CC4)cc3)C2CC1)C(C)C)C(N)=O (stereo partly shown) [[90Y]Y-DOTA-Tz-TCO-PEG4-AR, metal not drawn]
radiochemical purity after incubation in HS (human serum, 37 °C, 6 days, ITLC (citrate buffer pH 5.5, 0.1 M)): above 99%
stability of the preparation after radiolabelling (room temperature, HPLC): stable up to 24 hours
tissue uptake at 0.25 h (in vivo [2]; blood): 14.9 ± 3.89 %ID/g
tissue uptake at 1 h (in vivo [2]; blood): 2.65 ± 0.65 %ID/g
tissue uptake at 0.25 h (in vivo [2]; bone): 3.15 ± 1.87 %ID/g
tissue uptake at 1 h (in vivo [2]; bone): 0.7 ± 0.29 %ID/g
tissue uptake at 0.25 h (in vivo [2]; heart): 3.55 ± 0.62 %ID/g
tissue uptake at 1 h (in vivo [2]; heart): 0.61 ± 0.27 %ID/g
tissue uptake at 0.25 h (in vivo [2]; kidneys): 20.5 ± 7.97 %ID/g
tissue uptake at 1 h (in vivo [2]; kidneys): 2.94 ± 0.44 %ID/g
tissue uptake at 0.25 h (in vivo [2]; large intestine): 3.98 ± 0.68 %ID/g
tissue uptake at 1 h (in vivo [2]; large intestine): 0.67 ± 0.19 %ID/g
tissue uptake at 0.25 h (in vivo [2]; liver): 7.35 ± 3.27 %ID/g
tissue uptake at 1 h (in vivo [2]; liver): 0.82 ± 0.1 %ID/g
tissue uptake at 0.25 h (in vivo [2]; lung): 7.48 ± 1.92 %ID/g
tissue uptake at 1 h (in vivo [2]; lung): 1.57 ± 0.63 %ID/g
tissue uptake at 0.25 h (in vivo [2]; muscle): 2.36 ± 0.33 %ID/g
tissue uptake at 1 h (in vivo [2]; muscle): 0.41 ± 0.12 %ID/g
tissue uptake at 0.25 h (in vivo [2]; pancreas): 32 ± 3.86 %ID/g
tissue uptake at 1 h (in vivo [2]; pancreas): 14 ± 1.99 %ID/g
tissue uptake at 0.25 h (in vivo [2]; prostate): 26.3 ± 18 %ID/g
tissue uptake at 1 h (in vivo [2]; prostate): 3.48 ± 3.63 %ID/g
tissue uptake at 0.25 h (in vivo [2]; salivary gland): 3.69 ± 1.39 %ID/g
tissue uptake at 1 h (in vivo [2]; salivary gland): 0.6 ± 0.18 %ID/g
tissue uptake at 0.25 h (in vivo [2]; small intestine): 2.74 ± 0.28 %ID/g
tissue uptake at 1 h (in vivo [2]; small intestine): 0.99 ± 0.32 %ID/g
tissue uptake at 0.25 h (in vivo [2]; spleen): 4.03 ± 2.21 %ID/g
tissue uptake at 1 h (in vivo [2]; spleen): 1.08 ± 0.39 %ID/g
tissue uptake at 0.25 h (in vivo [2]; stomach): 4.72 ± 0.38 %ID/g
tissue uptake at 1 h (in vivo [2]; stomach): 1.95 ± 0.39 %ID/g
tissue uptake at 0.25 h (in vivo [2]; thyroid): 6.57 ± 3.95 %ID/g
tissue uptake at 1 h (in vivo [2]; thyroid): 0.99 ± 0.5 %ID/g
tissue uptake at 0.25 h (in vivo [2]; tumour): 6.32 ± 1.28 %ID/g
tissue uptake at 1 h (in vivo [2]; tumour): 2.26 ± 0.93 %ID/g

Compound: CC(C)C[C@H](NC(=O)C[C@H](O)[C@H](CC(C)C)NC(=O)[C@H](Cc1c[nH]cn1)NC(=O)CNC(=O)[C@@H](NC(=O)[C@H](C)NC(=O)[C@H](Cc1c[nH]c2ccccc12)NC(=O)[C@H](CCC(N)=O)NC(=O)[C@@H](Cc1ccccc1)NC(=O)CCOCCOCCOCCOCCNC(=O)OC1CCCC2=CNN=C(c3ccc(CNC(=O)CN4CCN(CC(=O)O)CCN(CC(=O)O)CCN(CC(=O)O)CC4)cc3)C2CC1)C(C)C)C(N)=O (stereo partly shown) [[111In]In-DOTA-Tz-TCO-PEG4-AR, metal not drawn]
tissue uptake at 1 h (in vivo [3]; blood): 1.2 ± 0.4 %ID/g
tissue uptake at 1 h (in vivo [3]; bone): 0.5 ± 0.1 %ID/g
tissue uptake at 1 h (in vivo [3]; heart): 0.5 ± 0.3 %ID/g
tissue uptake at 1 h (in vivo [3]; intestine): 1.09 ± 0.08 %ID/g
tissue uptake at 1 h (in vivo [3]; kidney): 3.7 ± 1.1 %ID/g
tissue uptake at 1 h (in vivo [3]; liver): 0.74 ± 0.06 %ID/g
tissue uptake at 1 h (in vivo [3]; lung): 0.7 ± 0.2 %ID/g
tissue uptake at 1 h (in vivo [3]; muscle): 0.3 ± 0.11 %ID/g
tissue uptake at 1 h (in vivo [3]; spleen): 0.4 ± 0.1 %ID/g
tissue uptake at 1 h (in vivo [3]; stomach): 0.9 ± 0.2 %ID/g
tissue uptake at 1 h (in vivo [3]; tumour): 2.5 ± 0.7 %ID/g
stability in CCM (cell culture media, 37 °C, up to 24 hours): excellent stabilities in CCM, with no degradation issues

— PMC8225959, “Clickable Radiocomplexes With Trivalent Radiometals for Cancer Theranostics: In vitro and in vivo Studies” (Frontiers in Medicine, 2021)
